Assay results reported in US11607422B2, “Uttroside B and derivatives thereof as therapeutics for hepatocellular carcinoma” (Rajiv Gandhi Centre for Biotechnology, an Autonomous …, priority 2016, dated 2023).
pIC50: −log10 of the molar value. Like-named read-outs stand apart in the source and are kept apart here.

How the values were obtained:
HepG2 cells [1] = assay: MTT cell viability assay in HepG2 cells; type: cell-based, human; conditions: Homo sapiens, HepG2, 72 h, read-out: IC50, cytotoxicity towards HepG2 cells
Protocol: Stocks of crude extracts and isolated compound of S. nigrum was prepared in DMSO for the in vitro studies and stored at −20° C. The DMSO concentration in all studies, including controls, was ≤0.2%. Cell viability assay was performed after 72 h of drug treatment while whole cell lysate preparation and cell cycle analysis were done after 24 h and 48 h of drug treatment. For studying NF-κB and AP-1, Uttroside B was incubated for 2 h before extraction.
MTT [3-(4,5-dimethylthiazole-2-yl)-2,5-diphenyltetrazolium bromide] assay is a standard colorimetric assay, suitable for analyzing proliferation, viability, and cytotoxicity. Briefly, the HepG2 cells were seeded in 96-well plates (2000 cells/well). […] Fresh media containing 25 μL of MTT solution (5 mg/mL in PBS) and 75 μL of complete medium was added to the wells and incubated for 2 h. At the end of incubation, lysis buffer (20% sodium dodecyl sulphate in 50% dimethyl formamide)was added to the wells (0.1 mL/well) and incubated for another 1 h at 37° C. At the end of incubation, the optical density was measured at 570 nm using ELISA plate reader (Bio-Rad). The relative cell viability in percentage was calculated as (A570 of treated samples/A570 of untreated samples)×100. The IC50 values were extrapolated from polynomial regression analysis of study data.^17

hepatocellular carcinoma = conditions: cited from earlier work
[2] = literature refs 3, 25; cited from earlier work
human cancer cells = conditions: literature ref 22; cited from earlier work
HepG2 cells [3] = assay: MTT assay of Uttroside B with autophagy inhibitor; type: cell-based, human; conditions: 3 MA 1 mM, 72 h
[4] = tested on: PARP and caspase 9 in HepG2 cells; assay: Western blot of PARP and caspase 9 cleavage with inhibition of autophagy; type: cell-based, human; conditions: for effect of autophagy inhibitor on Uttroside B-induced caspase 9 activation: HepG2, Western blot; for effect of autophagy inhibitor on Uttroside B-induced cleavage of PARP: HepG2, pretreatment with inhibitor
Protocol: Western blot analysis. Approximately 0.5×10^6 cells were grown on 60 mm culture plates and exposed to drugs as indicated for the desired time. The cells were then scraped out, washed in ice cold 1× PBS and pelleted down at 13000 rpm for 2 min. The pelleted cells were suspended in 150 μL of ice-cold whole cell lysis buffer[(20 mMTris of pH 7.4, 250 mM NaCl, 2 mM EDTA, 0.1% Triton, 1 mM DTT (1,4-dithiothreitol), 0.5 mM PMSF, 4 mM sodium orthovanadate, aprotinin (5 mg m/L) and leupeptin (5 mg m/L)] and kept in ice for 30 min, with intermittent vortexing every 5 min. After incubation, the lysate was centrifuged at 13000 rpm for 10 min at 4° C. and the supernatant was collected. The total protein content in the lysate was estimated by Bradford's method, and was then denatured by boiling with 5× loading dye before separating the proteins by SDSpolyacrylamidegel electrophoresis (SDS-PAGE). Following electrophoresis, the polyacrylamide gel and a PVDF membrane were equilibrated with Towbins buffer (1 L, 25 mM Tris, 192 mM glycine, 20% (v/v) methanol (pH 8.3) for 15-30 min and the separated proteins were electro-transferred to PVDF membrane (Hybond-P, GE Healthcare Life science) using Bio-Rad Mini PROTEAN III wet blot apparatus at 100 V for 2 h at cold conditions. After the transfer, the membrane was rinsed with TBS-T (20 mM Tris pH 7.5, 150 mM NaCl, 0.1% Tween 20) buffer and stained with Ponceau-S to ensure uniform transfer. After washing off the Ponceau stain with TBST, the membrane was exposed to 5% fat free milk in TBST buffer for 1 h at room temperature to block the nonspecific binding of antibodies, followed by overnight incubation with the primary antibody [1:1000 dilution] in 3% BSA in TBST buffer at 4° C. Excess antibody was washed off with TBST buffer and incubated with corresponding secondary antibody [1:5000 dilution] coupled with horse radish peroxidase (HRP) in 5% fat free milk in TBST buffer. The bands were visualized using enhanced chemiluminescence kit (Millipore, St Charles, Mo., United States) following manufacturer's protocol.
HepG2 was transiently transfected with Beclin siRNA and control siRNA using Lipofectamine LTX Plus reagent kit according to manufacturer's protocol (Invitrogen, USA). 0.35×10^6cells per well were seeded in a six well tissue culture plate containing 2 ml antibiotic-free normal growth medium supplemented with FBS and the cells were incubated to attain 60% confluency. Beclin siRNA duplex solution (Solution A) was added directly to the dilute transfection reagent (LP LTX plus reagent) (Solution B). The solution was mixed gently by pipetting up and down and incubated for 45 minutes at room temperature. The cells were washed gently with 2 ml of transfection medium (optiMEM medium). […]

HepG2 cells [5] = assay: Cell cycle analysis by flow cytometry (propidium iodide); type: cell-based, human; conditions: HepG2, 25 μM, 24 h
Protocol: FIGS. 3A-3F show Uttroside B induces caspase-dependent apoptosis leading to PARP cleavage in HepG2 cells while being independent of cell cycle. FIGS. 3A-3E are images of Western blots showing caspase activation in HepG2 cells. Whole-cell extracts were prepared after treating HepG2 cells with indicated concentrations of Uttroside B for 48 h, the whole cell lysate was resolved on a 15% gel and subjected to western blotting using antibodies against the caspases 8, 9 & 7 detected by ECL. HepG2 cells were treated with Uttroside B for 48 h at different concentrations and the whole cell lysate was resolved on a 10% gel, immunoblotted against anti-PARP and detected by ECL. […] HepG2 cells were treated with Uttroside B for 48 h, stained with propidium iodide and the cell cycle analysis was done using fluorescence activated cell sorter. Curcumin 25 μM (24 h) is used as positive control.
Flow cytometry: Cell cycle analysis helps in distinguishing the distribution of a population of cells to the different stages of the cycle. Cell cycle analysis using flow cytometry was performed to investigate the cell cycle arrest induced by Uttroside B. Cell cycle analysis is performed by quantitative measurement of nuclear DNA content in a cell by staining DNA with propidium iodide. […]

[6] = literature ref 9; cell line not stated; cited from earlier work
HepG2 cells [7] = conditions: literature ref 14; read-out: IC50 against HepG2 cells; cited from earlier work
U937 leukemia cell line = conditions: literature ref 14; read-out: IC50, cytotoxicity against U937 leukemia cell line; cited from earlier work
LC3 in HepG2 cells = assay: Autophagy flux (LC3I to LC3II conversion) with Bafilomycin; type: cell-based, human; conditions: HepG2, LC3 II accumulation
Protocol: Concentration dependent effect of BafilomycinAl on the endogenous conversion of LC3I to LC3II in HepG2 cells. Cells were treated with Bafilomycin Al at different concentration and the whole cell lysate was resolved on a 15% gel and immunoblotted against LC3 antibody. Uttroside B is an autophagy inducer in HepG2 cells as analysed by autophagy flux using Bafilomycin Al. […] The increase in LC3 II could not be considered as a fool proof of autophagic induction because a blockage in any step leading from autophagosome maturation to its fusion with lysosomes could cause its accumulation. So, the effect of Uttroside B in HepG2 cells were analyzed for autophagy flux, a more accurate read out of autophagy on co-treatment with Bafilomycin, an autophagy-lysosome inhibitor. Bafilomycin A, blocks autophagy by blocking the fusion of autophagosome with lysosome which cause the accumulation of autophagosome or LC3. First, the concentration of Bafilomycin Al required for saturating the blockage of autophagy-lysosome fusion was standardized. The efficacy of Bafilomycin Al, in terms of blocking autophagosome degradation in HepG2, was found peaked at 10 nM, beyond which no further accumulation of LC3 II was noted, which matched with the earlier reports.^32,37,38 […]

CNC(=O)c1cc(Oc2ccc(NC(=O)Nc3ccc(Cl)c(C(F)(F)F)c3)cc2)ccn1 [sorafenib]
pIC50 (HepG2 cells [1]): 5.24
prolongation of survival rate (hepatocellular carcinoma; HCC patients): up to 20%
side effects (hepatocellular carcinoma; reported): severe side effects

C[C@@H]1CC[C@@]2(OC1)O[C@H]1C[C@H]3[C@@H]4CC=C5C[C@@H](O)CC[C@]5(C)[C@H]4CC[C@]3(C)[C@H]1[C@@H]2C [diosgenin]
effect on cell cycle [2]: block cell cycle in G0/G1 phase

C[C@H]1CC[C@@]2(OC1)O[C@H]1C[C@H]3[C@@H]4CC[C@@H]5C[C@@H](O)C[C@@H](O[C@@H]6OC[C@@H](O)[C@H](O)[C@H]6O[C@@H]6O[C@@H](C)[C@H](O)[C@@H](O)[C@H]6O)[C@]5(C)[C@H]4CC[C@]3(C)[C@H]1[C@@H]2C [RCE-4, (1β,3β,5β,25S)-spirostan-1,3-diol1-[α-L-rhamnopyranosyl-(1→2)-β-Dxylopyranoside]]
growth inhibition and apoptosis (human cancer cells): induce growth inhibition and apoptosis in human cancer cells

C[C@@H]1CC[C@@]2(OC1)O[C@H]1C[C@H]3[C@@H]4CC[C@H]5C[C@@H](O)CC[C@]5(C)[C@H]4CC[C@]3(C)[C@H]1[C@@H]2C [tigogenin]
effect on cell cycle [2]: no effect on cell cycle

Cn1cnc(N)c2ncnc1-2 [3-MA]
effect of autophagy inhibitor on Uttroside B-induced cytotoxicity (HepG2 cells [3]): significantly enhanced
effect of autophagy inhibitor on Uttroside B-induced caspase 9 activation [4]: enhanced
effect of autophagy inhibitor on Uttroside B-induced cleavage of PARP [4]: enhanced

COc1cc(/C=C/C(=O)CC(=O)/C=C/c2ccc(O)c(OC)c2)ccc1O [curcumin, reference compound]
effect on cell cycle (positive control) (HepG2 cells [5]): readily induced cell cycle arrest at G2/M

C[C@@H]1CC[C@@]2(OC1)O[C@H]1C[C@H]3[C@@H]4CC[C@H]5C[C@@H](O[C@@H]6O[C@H](CO)[C@H](O[C@@H]7O[C@H](CO)[C@@H](O)[C@H](O[C@@H]8OC[C@@H](O)[C@H](O)[C@H]8O)[C@H]7O[C@@H]7O[C@H](CO)[C@@H](O)[C@H](O)[C@H]7O)[C@H](O)[C@H]6O)CC[C@]5(C)[C@H]4CC[C@]3(C)[C@H]1[C@@H]2C [Degalactotigonin]
cytotoxicity [6]: 0.25 µM

C[C@H](CC[C@@]1(O)O[C@H]2C[C@H]3[C@@H]4CC[C@H]5C[C@@H](O[C@@H]6O[C@H](CO)[C@H](O[C@@H]7O[C@H](CO)[C@@H](O)[C@H](O[C@@H]8OC[C@@H](O)[C@H](O)[C@H]8O)[C@H]7O[C@@H]7O[C@H](CO)[C@H](O)[C@H](O)[C@H]7O)[C@H](O)[C@H]6O)CC[C@]5(C)[C@H]4CC[C@]3(C)[C@H]2[C@@H]1C)CO[C@@H]1O[C@H](CO)[C@@H](O)[C@H](O)[C@H]1O [Parvispinoside B]
pIC50 (HepG2 cells [7]): < 4.00
pIC50 (U937 leukemia cell line): 6.30

C[C@@H]1CC[C@@]2(OC1)O[C@H]1C[C@H]3[C@@H]4CC[C@@H]5C[C@@H](O)CC[C@]5(C)[C@H]4CC[C@]3(C)[C@H]1[C@@H]2C [smilagenin]
effect on cell cycle [2]: block cell cycle in G0/G1 phase

CO/C1=C\C(C)=C\[C@@H](C)[C@@H](O)[C@@H](C)C/C(C)=C/C=C/[C@H](OC)[C@@H]([C@@H](C)[C@@H](O)[C@H](C)[C@@]2(O)C[C@@H](O)[C@H](C)[C@@H](C(C)C)O2)OC1=O [Bafilomycin Al]
concentration at which blocking of autophagosome degradation peaked (LC3 in HepG2 cells): 10 nM
effect of autophagy inhibitor on Uttroside B-induced caspase 9 activation [4]: enhanced
effect of autophagy inhibitor on Uttroside B-induced cleavage of PARP [4]: enhanced
